Test [1] has as its system NCIH929 multiple myeloma cell line. Nature of the test: Uptake of fluorescent analogs in NCIH929 cells (optical imaging). It is filed as cell-based. The conditions noted are these: fluorescence imaging. An excerpt: (§1) FIG. 5 includes optical images showing uptake of CLR1501 in two additional multiple myeloma cell lines (top row, U266; bottom row, H929). […] 20× magnification.
(§2) FIG. 7 includes optical images showing uptake of CLR1502 in two additional multiple myeloma cell lines (top row, U266; bottom row, H929). […] 20× magnification.

Test [2] relates to peripheral blood mononuclear cells (PBMCs) isolated from normal human blood. As to the kind of experiment: Uptake in normal peripheral blood mononuclear cells. It is filed as cell-based. The conditions noted are these: compared to MM1.S cells. The method, then: FIG. 8 includes optical images showing uptake of CLR1502 in cells co-incubated with Hoechst 33452 (blue nuclear) stain. […] 20× magnification.
(§3) Uptake of CLR1501 and 1502 was assessed using peripheral blood mononuclear cells (PBMCs) isolated from normal human blood.

Test [3] deals with RPM18226 multiple myeloma cell line. Nature of the test: Uptake of fluorescent analogs in RPM18226 cells (optical imaging). The following applies: fluorescence imaging. It is filed as cell-based. An excerpt:
(§4) FIG. 4 includes optical images showing uptake of CLR1501 in three different multiple myeloma cell lines (top row, MM.1S; middle row, MM.1R; bottom row, RPM18226). […] 20× magnification.
(§5) FIG. 6 includes optical images showing uptake of CLR1502 in three different multiple myeloma cell lines (top row, MM1S; middle row, MM.1R; bottom row, RPM18226). […] 20× magnification.

Test [4] relates to CD14+ monocyte/macrophage cells. As to the kind of experiment: Uptake in CD14+ monocyte/macrophage cells isolated from patient bone marrow aspirate. It is filed as cell-based, human. An excerpt:
(§6) Bone marrow aspirate samples were taken from fifteen different patients diagnosed with multiple myeloma.
(§7) Uptake of both CLR1501 and CLR1502 was quantified by measuring fluorescence intensity for CD138^+ multiple myeloma tumor cells, CD14^+ monocyte/macrophage cells, and CD138^−/CD14^− cells isolated from bone marrow aspitrates from multiple myeloma patients.

Test [5] deals with CD138-/CD14- cells (other mononuclear cells). As to the kind of experiment: Uptake in CD138-/CD14- cells isolated from patient bone marrow aspirate. It is filed as cell-based, human.
Excerpt: as §6, §7

The subject of test [6] is CD138+ multiple myeloma tumor cells. Nature of the test: Uptake in CD138+ tumor cells isolated from patient bone marrow aspirate. It is filed as cell-based, human.
Excerpt: as §6, §7

For test [7], the system named is MM.1S multiple myeloma cell line. Nature of the test: Uptake of fluorescent analogs in MM.1S cells (optical imaging). It is filed as cell-based. The conditions noted are these: for uptake: MM.1S cells, fluorescence imaging.
Excerpt: as §4, §5

For test [8], the system named is MM.1R multiple myeloma cell line. As to the kind of experiment: Uptake of fluorescent analogs in MM.1R cells (optical imaging). It is filed as cell-based. The conditions noted are these: fluorescence imaging.
Excerpt: as §4, §5

For test [9], the system named is CD14+ monocyte/macrophage cells from normal human blood. Nature of the test: Uptake in CD14+ monocyte/macrophage cells among normal PBMCs. It is filed as cell-based. The method, then:
as §3

In test [10] the test system is U266 multiple myeloma cell line. As to the kind of experiment: Uptake of fluorescent analogs in U266 cells (optical imaging). It is filed as cell-based. The conditions noted are these: fluorescence imaging.
Excerpt: as §1, §2

In test [11] the test system is MM.1s multiple myeloma cells. As to the kind of experiment: Bioactivity of [131I]-CLR1404: live fraction of MM.1s cells after exposure. It is filed as cell-based. The following applies: 48 hour exposure, control 96%. The method, then:
MM.1s multiple myeloma cells were exposed to two different concentrations of [^131I]-CLR1404 (0.082 μCi and 0.91 μCi) for a 48 hour period, as well as to a control containing no [^131I]-CLR1404. Bioactivity for each group was determined by determining the percentage of cells that remained alive after the exposure period (live fraction).

Where [12] appears, read: CD14+ cells from patient bone marrow aspirates.
Setting [13] is: CD138- cells from the same patient samples (except CD14+ cells).
Setting [14] is: CD138+ cells from bone marrow aspirates of fifteen multiple myeloma patients.

Consider `C[N+](C)(C)CCOP(=O)([O-])OCCCCCCCCCCCCCCCCCCc1ccc(C2=C3C=CC=[N+]3[B-](F)(F)n3cccc32)cc1` [CLR1501], for which the uptake result in test [1] was “high uptake”; in test [2] it was “minimal to no uptake”; in [3], “strong uptake”; in [4] (setting [12]), “did take up the analogs”; in test [4] (patient A, CD14+ cells) it was “taken up”; in test [5] (setting [13]) it was “very minimal to no uptake”. Moreover, the uptake result in [5] (patient A, CD138-/CD14- cells) is on record as “no detectable uptake”; in [5] (patient B, CD138-/CD14- cells co-incubated with Hoechst 33452), “minimal CLR1501 uptake”; in test [6] (setting [14]) it was “high uptake”; in test [6] (patient A, CD138+ cells), “taken up”; in [7], “strong uptake”; in test [8], “strong uptake”. The uptake entry in [9] is recorded as “did exhibit uptake”; in [10], “high uptake”. In addition, in test [7] (MM.1S, MM.1R, RPM18226 cells co-incubated with lipid raft stain), the “localization of uptake within cells” value is reported as “localized to the lipid rafts”.

`C[N+](C)(C)CCOP(=O)([O-])OCCCCCCCCCCCCCCCCCCc1ccc([131I])cc1` [[^131I]-CLR1404]: the live fraction in test [11] (0.082 μCi) is 71%; in [11] (0.91 μCi), 0%.

As to `CN1C(=CC=C2CCCC(C=CC3=[N+](C)c4ccccc4C3(C)C)=C2c2ccc(CCCCCCCCCCCCCCCCCCOP(=O)(O)OCC[N+](C)(C)C)cc2)C(C)(C)c2ccccc21` [CLR1502], the uptake result in [1] is on record as “high uptake”; in test [2], “minimal to no uptake”; in test [3] it was “high uptake”; in [4] (setting [12]) it was “did take up the analogs”; in [5] (setting [13]), “very minimal to no uptake”; in test [5] (patient D, CD138-/CD14- cells) it was “minimal uptake”. For the same compound, the uptake result is on record as “high uptake” in test [6] (setting [14]); “high uptake” in test [7]; “high uptake” in test [8]; “did exhibit uptake” in test [9]; “high uptake” in test [10]. In addition, the “uptake in CD138+ tumor cells relative to CD14 monocyte/macrophage cells (fluorescence intensity)” value in test [6] (patient G, same patient) is “threefold greater”. The “uptake in CD138+ tumor cells relative to CD138-/CD14- cells (fluorescence intensity)” value in [6] (patient G, same patient) is reported as “about fifteen fold greater”.

Source of the values: patent US20160296646A1, “ALKYLPHOSPHOCHOLINE ANALOGS FOR MULTIPLE MYELOMA IMAGING AND THERAPY” (Wisconsin Alumni Research Foundation, priority 2015, published 2016).
